In US20260125346A1, “Isoquinolinone Derivatives and 4H-Quinolizinone Derivatives and Pharmaceutical Compositions Thereof for the Treatment of Disease” (BeOne Medicines I GmbH, priority 2023, published 2026):

Columns and labels:
[1] = target: PI3Kα (p110/p85) kinase (wild type, "WT") (Homo sapiens, UniProt P42336); assay: PI3Kα (p110/p85) kinase ADP-Glo Assay; format: biochemical; settings: 25 uM ATP
In short: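 IC50 values come from a four-parameter logistic fit of ADP-Glo chemiluminescence, reflecting ADP formed. Enzyme, lipid substrate and […] compound were preincubated 30 min at room temperature, then 25 µM ATP was added for a 120 min reaction in 50 mM HEPES pH7.5, 3 mM MgCl2.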

[2] = target: PI3Kα (p110[H1047R]/p85) kinase (Homo sapiens, UniProt P42336, H1047R); assay: PI3Kα (p110[H1047R]/p85) kinase ADP-Glo Assay; format: biochemical; settings: 25 uM ATP; for selectivity: WT/H1047R: ADP-Glo Assay IC50 ratio
In short: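 ADP-Glo luminescence tracked ADP formed by the mutant p110α(H1047R)/p85 complex during a 120 min room-temperature reaction with 25 µM ATP and 5.35 µg/ml PI(4,5)P2:PS lipid substrate, started after 30 min enzyme–compound–substrate pre-incubation (compound […], 50 mM HEPES pH 7.5). IC50 via four-parameter logistic equation.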

Sequence of PI3Kα (p110/p85) kinase (wild type, "WT") (P42336 whole entry): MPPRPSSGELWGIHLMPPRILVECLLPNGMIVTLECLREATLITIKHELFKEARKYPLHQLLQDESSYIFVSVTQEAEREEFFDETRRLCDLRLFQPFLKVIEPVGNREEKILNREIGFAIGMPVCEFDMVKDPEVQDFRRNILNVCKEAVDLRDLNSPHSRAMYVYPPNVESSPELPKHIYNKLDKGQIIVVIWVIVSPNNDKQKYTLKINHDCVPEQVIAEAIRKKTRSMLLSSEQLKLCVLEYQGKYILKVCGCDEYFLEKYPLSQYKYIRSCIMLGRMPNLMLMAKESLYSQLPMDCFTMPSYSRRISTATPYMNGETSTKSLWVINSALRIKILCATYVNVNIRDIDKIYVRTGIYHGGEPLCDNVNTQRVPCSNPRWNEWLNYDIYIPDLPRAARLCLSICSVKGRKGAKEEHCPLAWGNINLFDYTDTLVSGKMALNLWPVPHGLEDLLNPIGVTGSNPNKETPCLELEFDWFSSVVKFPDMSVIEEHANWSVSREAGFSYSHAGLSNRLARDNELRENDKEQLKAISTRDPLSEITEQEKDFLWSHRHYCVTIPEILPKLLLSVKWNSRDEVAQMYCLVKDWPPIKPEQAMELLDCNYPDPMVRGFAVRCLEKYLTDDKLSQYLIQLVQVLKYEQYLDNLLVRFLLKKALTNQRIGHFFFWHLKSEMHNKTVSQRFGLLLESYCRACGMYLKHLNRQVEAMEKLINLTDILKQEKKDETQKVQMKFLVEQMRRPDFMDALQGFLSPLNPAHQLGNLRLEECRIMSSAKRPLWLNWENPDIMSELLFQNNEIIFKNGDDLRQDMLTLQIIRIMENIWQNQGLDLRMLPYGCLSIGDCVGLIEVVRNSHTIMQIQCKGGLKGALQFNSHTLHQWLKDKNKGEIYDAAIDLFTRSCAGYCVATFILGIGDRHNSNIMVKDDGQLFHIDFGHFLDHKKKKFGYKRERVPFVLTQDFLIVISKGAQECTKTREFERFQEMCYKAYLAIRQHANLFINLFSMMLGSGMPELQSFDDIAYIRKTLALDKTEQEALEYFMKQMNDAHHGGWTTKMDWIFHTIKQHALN
Sequence of PI3Kα (p110/p85) kinase (wild type, "WT") (P27986 whole entry partner): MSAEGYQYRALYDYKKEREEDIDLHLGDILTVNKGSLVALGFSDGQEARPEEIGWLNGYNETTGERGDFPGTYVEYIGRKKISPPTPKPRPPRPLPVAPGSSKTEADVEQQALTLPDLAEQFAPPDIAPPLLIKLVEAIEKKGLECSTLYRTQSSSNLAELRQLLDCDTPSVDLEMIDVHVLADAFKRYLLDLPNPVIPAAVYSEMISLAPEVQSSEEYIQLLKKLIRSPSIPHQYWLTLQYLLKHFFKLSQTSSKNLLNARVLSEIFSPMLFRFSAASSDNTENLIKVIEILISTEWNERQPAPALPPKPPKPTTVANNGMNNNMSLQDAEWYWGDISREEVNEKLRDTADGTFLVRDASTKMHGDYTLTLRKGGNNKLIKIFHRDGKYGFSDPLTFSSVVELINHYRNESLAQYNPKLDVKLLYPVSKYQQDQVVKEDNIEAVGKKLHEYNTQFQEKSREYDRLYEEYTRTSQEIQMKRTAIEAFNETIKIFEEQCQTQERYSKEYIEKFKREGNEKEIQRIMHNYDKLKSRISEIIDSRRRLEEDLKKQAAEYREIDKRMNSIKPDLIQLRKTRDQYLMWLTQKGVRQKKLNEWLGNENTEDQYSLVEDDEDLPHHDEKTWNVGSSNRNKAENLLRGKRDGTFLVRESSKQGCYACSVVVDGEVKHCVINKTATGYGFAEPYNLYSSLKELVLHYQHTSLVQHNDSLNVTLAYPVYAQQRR
Sequence of PI3Kα (p110[H1047R]/p85) kinase (P42336 whole entry H1047R): as the sequence (P42336 whole entry) above, with H1047R counted along it
Sequence of PI3Kα (p110[H1047R]/p85) kinase (P27986 whole entry partner): as the sequence (P27986 whole entry partner) above

Row | IC50 [1] | IC50 [2] | selectivity: WT/H1047R [2] | Structure (SMILES)
1 | 9.82 µM | 0.24 µM | 40.9 | Cc1cc(C(C)Nc2ccccc2C(=O)O)c2cc(-c3cnn(C)c3)n(C)c(=O)c2c1 (stereo not drawn) [Example 91, 2-((1-(2,7-dimethyl-3-(1-methyl-1H-pyrazol-4-yl)-1-oxo-1,2-dihydroisoquinolin-5-yl)ethyl)amino)benzoic acid]
2 | 3.87 µM | 0.443 µM | 8.7 | Cc1cc(C(C)Nc2ccccc2C(=O)O)c2cc(-c3ccc(C#N)cc3)n(C)c(=O)c2c1 (stereo not drawn) [Example 4, 2-((1-(3-(4-cyanophenyl)-2,7-dimethyl-1-oxo-1,2-dihydroisoquinolin-5-yl)ethyl)amino)benzoic acid]
3 | > 100 µM | 0.887 µM | >113 | Cc1cc(C(C)Nc2sc3ccccc3c2C(=O)O)c2cc(-c3ccccc3)n(C)c(=O)c2c1 (stereo not drawn) [Example 92, 2-((1-(2,7-dimethyl-1-oxo-3-phenyl-1,2-dihydroisoquinolin-5-yl)ethyl)amino)benzo[b]thiophene-3-carboxylic acid]
